Series [1] deals with CDM5 cells (β-tcTet cells). Description: Cell membrane potential measured with the bis-oxonol assay. Type of series: cell-based. How it is done:
In order to test the bioefficacy of GLP-1, which was believed to be secreted by β-1081 cells, the supernatant of the 1081 cells were kept for 4 hours in 25 mM KRBH. CDM5 cells (a type of β-cTCtet cell) were then stimulated with this supernatant. Next, the effect of this stimulation in cell membrane potential was measured using the bis-oxonol assay.
Those skilled in the art will recognize that GLP-1 has the effect of depolarizing the cell membrane upon application. This depolarization is the result of the stimulatory effect of GLP-1 on cAMP, which, as discussed above, leads to increased insulin secretion. The increased insulin secretion is the result of both the enhanced closing of ATP sensitive potassium (K^+ ATP) channels in the membrane of the β-cell as well as the protein kinase A activation of distal exocytotic events.
The cells were allowed to equilibrate in 8 mM glucose and 400 μM Diazoxide for 600 seconds. At 200, 400, 600, 800, and 1000 seconds, 1, 2, 4, 6, and 8 nM GLP-1-gly8, respectively, were added to the medium.
In this experiment, the cells were equilibrated at 8 mM glucose and 400 μM of diazoxide for 600 seconds. At t=100 seconds, 100 nM of Exendine-(9-39) was added. […] At t=600 seconds, 20 μl of water was added as a dilution control.
Again, the cells were allowed to equilibrate at 8 mM glucose and 400 μM Diazoxide for 600 seconds. At 200 seconds, 24 μl of the supernatant of the GLP-1 secreting 1081 cells were added to the cells. […] At 1500 seconds, 24 μl of the supernatant was added.
Exendine (9-39) is an inhibitor of GLP-1 activity. […] In this experiment, the equilibration period lasted from time […]. At t=200 seconds, […] of Exendine (9-39) was added to the cells.

The conditions of series [2]: comparison of GLP-1-gly8 and wild type GLP-1; cited from earlier work.
Series [3] deals with diabetic mice implanted with encapsulated CDM3D cells. Description: In vivo evaluation of GLP-1-gly8 injected intraperitoneally in diabetic mice implanted with encapsulated CDM3D cells. An excerpt:
The effect observed in the control group can probably be attributed to the few remaining islets (β-cells) in the pancreas of the mice that remain functional following streptozocin treatment.

As to `CC1=NS(=O)(=O)c2cc(Cl)ccc2N1` [Diazoxide], the membrane potential entry in series [1] (8 mM glucose and 400 μM Diazoxide, 2×10^6 cells, FIG. 6) is on record as “maximum hyperpolarization”; in series [1] (400 μm Diazoxide at t=2800 s, FIG. 2), “maximum depolarization”.
As for “GLP-1-gly8: commercial GLP-1-gly8, given rather than wild-type GLP-1; half-life longer than wild type GLP-1 (HDEFERHGEGTFTSDVSSYLEGQAAKEFIAWLVKGRG; Glucagon-like peptide 1; UniProt P01275 92-128, looked up, variant A8G)”, the half-life result in series [2] is recorded as “longer than the half-life of wild type GLP-1”. For the same molecule, the membrane potential result in series [1] (8 nM GLP-1-gly8, cells in 8 mM glucose and 400 μM Diazoxide, FIG. 3) is recorded as “saturation of the effect”; in series [1] (1, 2, 4, 6 nM GLP-1-gly8, cells in 8 mM glucose and 400 μM Diazoxide, FIG. 3), “depolarization of the cell membrane”; in series [1] (GLP-1-gly8 after exposure of the cells to Exendine-(9-39), FIG. 4) it was “no response was observed”. Besides, the “glycemia after injection, test group” value in series [3] (0.1 nmol IP at t=0, streptozocin-diabetic mice implanted IP with encapsulated CDM3D cells, first two hours, FIG. 1) was “large decrease in glycemia”. Besides, the “glycemia after injection, control group” value in series [3] (0.1 nmol IP at t=0, streptozocin-diabetic non-implanted mice, FIG. 1) is listed as “smaller (and shorter decrease) in glycemia”. Moreover, in series [3] (0.1 nmol IP, implanted diabetic mice), the “loss of the effect on glycemia in the test group” value turned out to be 120 min.

Values taken from patent publication US20020025306A1, “Methods of increasing the glucose responsiveness of pancreatic ss-cells” (priority 2000, published 2002).
